Source: ChEMBL document CHEMBL1130583, “Benzylamine-based selective and orally bioavailable inhibitors of thrombin” (Bioorg Med Chem Lett, 1998)

Assays:
Rattus norvegicus = test: In vivo antithrombotic activity was tested in rat thromboplastin-induced model of venous thrombosis at an intravenous bolus of 5 mg/Kg; assay type: functional
Prothrombin = Prothrombin (Homo sapiens, UniProt P00734); test: Binding affinity towards human thrombin
Serine protease 1 = target: T1, Serine protease 1 (Bos taurus, UniProt P00760); test: Binding affinity towards bovine trypsin was evaluated in vitro
T1 sequence (P00760 whole entry): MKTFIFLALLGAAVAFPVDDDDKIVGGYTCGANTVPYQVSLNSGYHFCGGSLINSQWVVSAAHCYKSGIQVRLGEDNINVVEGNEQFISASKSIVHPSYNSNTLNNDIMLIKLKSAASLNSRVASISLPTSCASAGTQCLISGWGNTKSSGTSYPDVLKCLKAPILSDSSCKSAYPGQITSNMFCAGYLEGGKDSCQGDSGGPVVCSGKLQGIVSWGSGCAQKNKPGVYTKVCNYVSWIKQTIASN

[1] = Time taken by the compound to achieve maximum concentration in rat plasma at 30 mg/Kg upon oral administration.; assay type: ADME, organism-based
[2] = Maximum concentration in rat plasma at 30 mg/Kg upon oral administration.; assay type: ADME, organism-based; set-up: dose 30 mg/Kg, route oral
[3] = Apparent permeability coefficient (Papp) was determined in human Caco-2 cell monolayer (n = 3); assay type: ADME, cell-based

Row | SMILES | Ki (Prothrombin) [nM] | Ki (Serine protease 1) [nM] | Tmax [1] [h] | Cmax [2] [µM] | Papp [3] [×10⁻⁶ cm/s] | inhibition in vivo at 5 mg/kg (Rattus norvegicus) [%]
1 | NCc1ccc(C[C@H](NS(=O)(=O)c2ccc3ccccc3c2)C(=O)N2CCCCC2)cc1 | 3.1 | – | – | – | – | –
2 | CN(C(=O)[C@H](Cc1ccc(CN)cc1)NS(=O)(=O)c1ccc2cc3ccccc3cc2c1)C1CCCC1 | 5.7 | 3300 | – | – | – | 45.4
3 | CN(C(=O)[C@H](Cc1ccc(CN)cc1)NS(=O)(=O)c1ccc(C2CCCCC2)cc1)C1CCCC1 | 20.1 | 4800 | – | – | – | 23.8
4 | CN(C(=O)[C@H](Cc1ccc(CN)cc1)NS(=O)(=O)c1ccc2c(c1)CCCCC2)C1CCCC1 | 3.3 | 6300 | 1.33 | 3.5 | – | 39.4
5 | CN(C(=O)[C@H](Cc1ccc(CN)cc1)NS(=O)(=O)c1ccc2c(c1)CCCC2)C1CCCC1 | 10.1 | 9800 | – | – | – | 16.4
6 | COc1ccc2cc(S(=O)(=O)N[C@@H](Cc3ccc(CN)cc3)C(=O)N(C)C3CCCC3)ccc2c1 | 6.6 | 14200 | 2.33 | 2.8 | 10.7 | 44.1
7 | CN(C(=O)[C@H](Cc1ccc(C(=N)N)cc1)NS(=O)(=O)c1ccc2ccccc2c1)C1CCCC1 | – | – | – | – | 0.2 | –
8 | CN(C(=O)[C@H](Cc1ccc(C(=N)NN)cc1)NS(=O)(=O)c1ccc2ccccc2c1)C1CCCC1 | – | – | – | – | 1.7 | –

More lines, main results first:

Row | Ki (Prothrombin) [nM] | Ki (Serine protease 1) [nM] | Tmax [1] [h] | Cmax [2] [µM] | Papp [3] [×10⁻⁶ cm/s] | SMILES | inhibition in vivo at 5 mg/kg (Rattus norvegicus) [%]
9 | 18.3 | 13600 | – | – | – | CN(C(=O)[C@H](Cc1ccc(CN)cc1)NS(=O)(=O)c1ccc2ccccc2c1)C1CCCC1 | 17.6
10 | 107 | – | – | – | – | CN(C(=O)[C@H](Cc1ccc(CN)cc1)NS(=O)(=O)c1ccc(-c2ccccn2)s1)C1CCCC1 | –
11 | 10.9 | 17100 | 1.6 | 3.3 | – | CN(C)c1cccc2c(S(=O)(=O)N[C@@H](Cc3ccc(CN)cc3)C(=O)N(C)C3CCCC3)cccc12 | 35.5
12 | 9.6 | 9040 | – | – | – | CCCc1ccc(S(=O)(=O)N[C@@H](Cc2ccc(CN)cc2)C(=O)N(C)C2CCCC2)cc1 | –
13 | 60.5 | – | – | – | – | CN(C(=O)[C@H](Cc1ccc(CN)cc1)NS(=O)(=O)c1ccc(-c2ccccc2)cc1)C1CCCC1 | –
